The values that follow come from patent US20090004185A1, “AMINO-SUBSTITUTED QUINAZOLINE DERIVATIVES AS INHIBITORS OF BETA-CATENIN/TCF-4 PATHWAY AND CANCER TREATMENT AGENTS” (WYETH, priority 2007, published 2009).

Each structure is given as a SMILES string.

The subject of one experiment is β-catenin/Tcf-4. Briefly: cells. Particulars: 24 hours of incubation with compound, ratio Firefly/Renilla luciferase. Format: cell-based. The method, boiled down: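 SW480-derived lines with integrated reporters (Tcf-4-driven firefly luciferase; SV40 firefly as specificity control; SV40 Renilla for cell number/toxicity), treated 24 hours with titrated compounds, final 0.316% DMSO. Dual-luciferase read-out; firefly/Renilla ratio as % of control, duplicate plates, IC50 (nM) from curve fit.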

For a further experiment, the system named is SV40-Luc. Briefly: SV40-Luc control luciferase reporter assay, SV 5A8 cell line (SV40-Luc and SV40-R-Luc), control for non-specific inhibitors. Format: cell-based, human. Particulars: SV 5A8 cells derived from SW480, 24 hours of incubation with compound, ratio Firefly/Renilla luciferase. A digest of the protocol: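 SW480-derived lines with integrated reporters: SV 5A8 (SV40 firefly plus SV40 Renilla), Tcf 33.13 and Tcf 22C11 (Tcf-4 firefly plus SV40 Renilla). Cells seeded 1×10^4/well, compounds added 20-24 h later at titrated concentrations (final DMSO 0.316%) for 24 h. Firefly/Renilla ratio, as % of control, gave IC50 (nM).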
(A reporter such as luciferase makes a cellular process visible.)

Setting [1] is: Homo sapiens, SW480, 24 h, Tcf 33.13 cells derived from SW480.
Where [2] appears, read: Homo sapiens, Tcf22C11, 24 h, Tcf 22C11 cells derived from SW480.
The mark [3] stands for this setting: Tcf 22C11 cells derived from SW480.
Setting [4] is: Tcf 33.13 cells derived from SW480.

As to `CNc1nc(N[C@H](C)c2ccc(NC(=O)c3ccc(F)cc3)cc2)c2cccc(C)c2n1` [Example 276, (R)-4-fluoro-N-(4-(1-(8-methyl-2-(methylamino)quinazolin-4-ylamino)ethyl)phenyl)benzamide], the IC50 in the experiment on β-catenin/Tcf-4 (setting [1]) is 494 nM; in the experiment on β-catenin/Tcf-4 (setting [2]) it was 653 nM; in the experiment with SV40-Luc (Homo sapiens, SV5A8, 24 h), over 2490 nM.
As to `CN(C)c1nc(NCc2ccc(C(=O)Nc3ccc(F)cc3)cc2)c2cc(-c3ccc(/C=C/c4ccccc4)cc3)ccc2n1` [Example 173], the IC50 in the experiment with β-catenin/Tcf-4 (setting [3]) is over 4510 nM; with β-catenin/Tcf-4 (setting [4]), 4480 nM; in the experiment on SV40-Luc, over 18000 nM.
With `Cc1ccc2c(NCc3ccc(NC(=O)c4ccc(F)cc4)cc3)nc(N(C)CCCN(C)C)nc2c1` [Example 201, N-{4-[({2-[[3-(dimethylamino)propyl](methyl)amino]-7-methylquinazolin-4-yl}amino)methyl]phenyl}-4-fluorobenzamide], the half-inhibitory concentration (IC50) in the experiment with β-catenin/Tcf-4 (setting [1]) is 664 nM; with β-catenin/Tcf-4 (setting [2]) it was 1310 nM; in the experiment on SV40-Luc (Homo sapiens, SV5A8, 24 h), over 4990 nM.
Regarding `Cc1ccc2nc(N(C)C)nc(NCc3ccc(NC(=O)c4ccc(F)cc4)cc3)c2c1` [Example 38, N-[4-({[2-(dimethylamino)-6-methylquinazolin-4-yl]amino}methyl)phenyl]-4-fluorobenzamide], the 50% inhibitory concentration (IC50) in the experiment on β-catenin/Tcf-4 (setting [3]) was 1620 nM; in the experiment on β-catenin/Tcf-4 (setting [4]) it was 2050 nM; with SV40-Luc (Homo sapiens, SV5A8, 24 h) it was over 11600 nM.
As to `CNc1nc(NCc2ccc(NC(=O)c3ccc(C#N)cc3)cc2)c2cccc(C)c2n1` [Example 266, 4-cyano-N-[4-({[8-methyl-2-(methylamino)quinazolin-4-yl]amino}methyl)phenyl]benzamide], the IC50 in the experiment with β-catenin/Tcf-4 (setting [1]) is 962 nM; with β-catenin/Tcf-4 (setting [2]), 1100 nM; with SV40-Luc (Homo sapiens, SV5A8, 24 h), over 4660 nM.
`C=Cc1ccc2nc(N(C)C)nc(NCc3ccc(NC(=O)C4CCN(Cc5ccccc5)CC4)cc3)c2c1` [Example 75, 1-benzyl-N-[4-({[2-(dimethylamino)-6-vinylquinazolin-4-yl]amino}methyl)phenyl]-piperidine-4-carboxamide]: the IC50 in the experiment with β-catenin/Tcf-4 (setting [1]) was 287 nM; in the experiment on β-catenin/Tcf-4 (setting [2]), 437 nM; in the experiment on SV40-Luc (Homo sapiens, SV5A8, 24 h), over 4490 nM.
In the case of `CCCC/C=C/c1ccc2c(NCc3ccc(NC(=O)c4ccc(F)cc4)cc3)nc(N(C)C)nc2c1` [Example 103, N-{4-[({2-(dimethylamino)-7-[(1E)-hex-1-en-1-yl]quinazolin-4-yl}amino)methyl]phenyl}-4-fluorobenzamide], the 50% inhibitory concentration (IC50) in the experiment on β-catenin/Tcf-4 (setting [1]) was 429 nM; in the experiment with β-catenin/Tcf-4 (setting [2]), 615 nM; in the experiment with SV40-Luc (Homo sapiens, SV5A8, 24 h), over 4680 nM.
With `C=Cc1cccc(-c2ccc3nc(N(C)C)nc(NCc4ccc(C(=O)Nc5ccc(F)cc5)cc4)c3c2)c1` [Example 172], the half-maximal inhibitory concentration (IC50) with β-catenin/Tcf-4 (setting [3]) is 397 nM; with β-catenin/Tcf-4 (setting [4]), 308 nM; in the experiment on SV40-Luc, over 2830 nM.
With `Cc1ccc2c(NCc3ccc(NC(=O)c4ccc(F)cc4)cc3)nc(N(C)CCc3ccccn3)nc2c1` [Example 222, 4-fluoro-N-{4-[({7-methyl-2-[methyl(2-pyridin-2-ylethyl)amino]quinazolin-4-yl}amino)methyl]phenyl}benzamide], the concentration for half-maximal inhibition (IC50) with β-catenin/Tcf-4 (setting [1]) was 650 nM; with β-catenin/Tcf-4 (setting [2]), 918 nM; with SV40-Luc (Homo sapiens, SV5A8, 24 h), over 7880 nM.
As for `Cc1ccc2nc(N3CCCC3)nc(NCc3ccc(NC(=O)c4ccc(F)cc4)cc3)c2c1` [Example 44, N-(4-((2-(1-azacyclopentyl)-6-methylquinazolin-4-ylamino)methyl)phenyl)-4-fluorobenzamide], the IC50 in the experiment with β-catenin/Tcf-4 (setting [1]) is over 22000 nM; with β-catenin/Tcf-4 (setting [2]), over 22000 nM; with SV40-Luc (Homo sapiens, SV5A8, 24 h) it was over 22000 nM.
With `CNc1nc(NCc2ccc(NC(=O)c3ccc(Cl)cc3F)cc2)c2ccccc2n1` [Example 14, 4-chloro-2-fluoro-N-[4-({[2-(methylamino)quinazolin-4-yl]amino}methyl)phenyl]benzamide], the IC50 in the experiment with β-catenin/Tcf-4 (setting [1]) was 1290 nM; with β-catenin/Tcf-4 (setting [2]) it was 891 nM; in the experiment with SV40-Luc (Homo sapiens, SV5A8, 24 h), over 2870 nM.
In the case of `O=C(Nc1ccc(CNc2nc(NC3CCC3)nc3ccc(C(F)(F)F)cc23)cc1)C1CCN(Cc2ccc(F)cc2)CC1` [Example 159, N-[4-({[2-(cyclobutylamino)-6-(trifluoromethyl)quinazolin-4-yl]amino}methyl)phenyl]-1-(4-fluorobenzyl)piperidine-4-carboxamide], the half-inhibitory concentration (IC50) with β-catenin/Tcf-4 (setting [1]) is over 8240 nM; in the experiment on β-catenin/Tcf-4 (setting [2]) it was over 8240 nM; with SV40-Luc (Homo sapiens, SV5A8, 24 h), over 8240 nM.
Consider `Cc1ccc2nc(N3CCN(c4ccccn4)CC3)nc(NCc3ccc(NC(=O)C4CCN(Cc5ccccc5)CC4)cc3)c2c1` [Example 79, 1-benzyl-N-[4-({[6-methyl-2-(4-pyridin-2-ylpiperazin-1-yl)quinazolin-4-yl]amino}methyl)phenyl]piperidine-4-carboxamide], for which the half-maximal inhibitory concentration (IC50) in the experiment with β-catenin/Tcf-4 (setting [1]) is 1680 nM; in the experiment with β-catenin/Tcf-4 (setting [2]), 2350 nM; in the experiment on SV40-Luc (Homo sapiens, SV5A8, 24 h) it was over 16000 nM.
As for `O=C(Nc1ccc(CNc2nc(N3CCC3)nc3ccc(C(F)(F)F)cc23)cc1)C1CCN(Cc2ccc(F)cc2)CC1` [Example 155, N-[4-({[2-azetidin-1-yl-6-(trifluoromethyl)quinazolin-4-yl]amino}methyl)phenyl]-1-(4-fluorobenzyl)piperidine-4-carboxamide], the IC50 is 3490 nM in the experiment on β-catenin/Tcf-4 (setting [1]); over 2110 nM in the experiment with β-catenin/Tcf-4 (setting [2]); over 8440 nM with SV40-Luc (Homo sapiens, SV5A8, 24 h).
In the case of `Cc1ccc2nc(N3CCCC3)nc(NCc3ccc(NC(=O)C4CCN(Cc5ccccc5)CC4)cc3)c2c1` [Example 77, 1-benzyl-N-(4-{[(6-methyl-2-pyrrolidin-1-ylquinazolin-4-yl)amino]methyl}phenyl)piperidine-4-carboxamide], the 50% inhibitory concentration (IC50) was 847 nM in the experiment on β-catenin/Tcf-4 (setting [1]); 2260 nM in the experiment on β-catenin/Tcf-4 (setting [2]); over 8230 nM in the experiment with SV40-Luc (Homo sapiens, SV5A8, 24 h).
As to `CNc1nc(NCc2ccc(NC(=O)c3ccc(OC(F)(F)F)cc3)cc2)c2ccccc2n1` [Example 22, N-[4-({[2-(methylamino)quinazolin-4-yl]amino}methyl)phenyl]-4-(trifluoromethoxy)benzamide], the IC50 is 1230 nM with β-catenin/Tcf-4 (setting [1]); 1380 nM in the experiment with β-catenin/Tcf-4 (setting [2]); over 2670 nM in the experiment with SV40-Luc (Homo sapiens, SV5A8, 24 h).
As for `CCCC/C=C/c1ccc2nc(N(C)C)nc(NCc3ccc(C(=O)Nc4ccc(F)cc4)cc3)c2c1` [Example 175, E-(4-((2-dimethylamino)-6-(hex-1-enyl)quinazolin-4-ylamino)methyl)-N-(4-fluorophenyl)benzamide], the 50% inhibitory concentration (IC50) in the experiment with β-catenin/Tcf-4 (setting [3]) is 712 nM; in the experiment on β-catenin/Tcf-4 (setting [4]), 537 nM; in the experiment on SV40-Luc, over 4680 nM.
In the case of `Cc1ccc2c(NCc3ccc(NC(=O)c4ccc(F)cc4)cc3)nc(N(C)CCO)nc2c1` [Example 214, 4-fluoro-N-{4-[({2-[(2-hydroxyethyl)(methyl)amino]-7-methylquinazolin-4-yl}amino)methyl]phenyl}benzamide], the half-inhibitory concentration (IC50) in the experiment with β-catenin/Tcf-4 (setting [1]) is 379 nM; with β-catenin/Tcf-4 (setting [2]) it was 452 nM; with SV40-Luc (Homo sapiens, SV5A8, 24 h) it was over 1090 nM.
Regarding `CNc1nc(NCc2ccc(NC(=O)c3ccc(F)cc3)cc2)c2cc(C)cc(C)c2n1` [Example 30, N-[4-({[6,8-dimethyl-2-(methylamino)quinazolin-4-yl]amino}methyl)phenyl]-4-fluorobenzamide], the IC50 was 1870 nM in the experiment on β-catenin/Tcf-4 (setting [1]); 2100 nM in the experiment on β-catenin/Tcf-4 (setting [2]); over 5820 nM in the experiment with SV40-Luc (Homo sapiens, SV5A8, 24 h).
As to `Cc1ccc2c(NCc3ccc(NC(=O)C4CCN(Cc5c(F)cc(F)cc5F)CC4)cc3)nc(N(C)C)nc2c1` [Example 260, N-[4-({[2-(dimethylamino)-7-methylquinazolin-4-yl]amino}methyl)phenyl]-1-(2,4,6-trifluorobenzyl)piperidine-4-carboxamide], the half-maximal inhibitory concentration (IC50) was 203 nM in the experiment with β-catenin/Tcf-4 (setting [1]); 215 nM with β-catenin/Tcf-4 (setting [2]); over 7870 nM in the experiment with SV40-Luc (Homo sapiens, SV5A8, 24 h).
Turning to `O=C(Nc1ccc(CNc2nc(N3CCCC3)nc3ccccc23)cc1)c1ccc(F)cc1` [Example 119, 4-fluoro-N-(4-{[(2-pyrrolidin-1-ylquinazolin-4-yl)amino]methyl}phenyl)benzamide], the concentration for half-maximal inhibition (IC50) in the experiment on β-catenin/Tcf-4 (setting [1]) is 1270 nM; with β-catenin/Tcf-4 (setting [2]), 1740 nM; with SV40-Luc (Homo sapiens, SV5A8, 24 h), over 2830 nM.
For `CNc1nc(NCc2ccc(NC(=O)c3ccc(Cl)cc3Cl)cc2)c2cc(C)ccc2n1` [Example 19, 2,4-dichloro-N-[4-({[6-methyl-2-(methylamino)quinazolin-4-yl]amino}methyl)phenyl]benzamide] the same measures were 12800 nM, over 21400 nM and over 21400 nM.
In the same order, the values of `Cc1ccc2c(N[C@@H](C)c3ccc(NC(=O)C4CCN(Cc5ccc(F)c(F)c5)CC4)cc3)nc(N(C)C)nc2c1` [Example 268, 1-(3,4-difluorobenzyl)-N-[4-((1S)-1-{[2-(dimethylamino)-7-methylquinazolin-4-yl]amino}ethyl)phenyl]piperidine-4-carboxamide] are 203 nM, 215 nM and over 7870 nM.
Consider `Cc1ccc2c(NCc3ccc(NC(=O)C4CCN(Cc5ccccc5)CC4)cc3)nc(N3CCN(C)CC3)nc2c1` [Example 141, 1-benzyl-N-[4-({[7-methyl-2-(4-methylpiperazin-1-yl)quinazolin-4-yl]amino}methyl)phenyl]piperidine-4-carboxamide], for which the half-inhibitory concentration (IC50) in the experiment with β-catenin/Tcf-4 (setting [1]) was 1330 nM; in the experiment with β-catenin/Tcf-4 (setting [2]), 1580 nM; in the experiment with SV40-Luc (Homo sapiens, SV5A8, 24 h), over 17700 nM.
For `Cc1ccc2c(NCc3ccc(NC(=O)Nc4ccc(F)cc4)cc3)nc(N(C)C)nc2c1` [Example 180, N-[4-({[2-(dimethylamino)-7-methylquinazolin-4-yl]amino}methyl)phenyl]-N′-(4-fluorophenyl)urea] the same measures were 2020 nM, 1460 nM and over 5610 nM.

For orientation: IC50 means the midpoint of a concentration-inhibition curve.
